From patent publication US10293004B2, “Butyrate-producing bacterium and use thereof” (KABUSHIKI KAISHA YAKULT HONSHA, priority 2014, dated 2019)

Tests used:
[1] = Turbidity (OD660) after anaerobic culture of bacterial strains in PYGA, PYSA or PYXA medium
Method: A frozen stock solution of each bacterial strain (a 10% (w/v) skim milk-2% sodium glutamate solution in which bacterial cells were suspended) (cell count: 2.0 to 5.5×10^10 cells/mL) was thawed, and the solution was inoculated at 1% to 4 mL of a PY liquid medium supplemented with 33 mM sodium acetate and 0.5 (w/v) % glucose (PYGA medium), followed by anaerobic culture at 37° C. for 24 hours. After the culture, the culture solution was inoculated at 1% to a fresh PYGA medium, followed by anaerobic culture at 37° C. for 24 hours. After the culture, the turbidity (OD660) of the culture solution was measured. Then, the culture solution was inoculated at 1% to a PY medium containing 0.5 (w/v) % L-sorbose or D-xylitol and 33 mM sodium acetate (the medium containing L-sorbose: PYSA, and the medium containing D-xylitol: PYXA), followed by anaerobic culture at 37° C. for 24 hours. Then, the turbidity (OD660) was measured.

[2] = Biochemical properties: enzymatic activity (API-ZYM, Rapid ID32A API, API KENKI 20A); design: key: +: positive reaction; −: negative reaction; +^w: weak reaction
Excerpt: (§1) Commercially available API-ZYM, Rapid ID32A API, and API KENKI 20A (SYSMEX bioMerieux Co., Ltd.) were used in the testing of biochemical properties of various bacterial strains. The testing method followed the product manuals.

[3] = Biochemical properties: saccharide fermentability (API-ZYM, Rapid ID32A API, API KENKI 20A); design: key: +: positive reaction; −: negative reaction; +^w: weak reaction
Excerpt: as §1

[4] = Evaluation of ability to produce butyrate from indigestible saccharides (Example 3)
Excerpt: Galactooligosaccharide (GOS), maltitol, D-mannitol, lactitol, isomalt, isomaltulose, L-sorbose and D-sorbitol were used as indigestible saccharides. These indigestible saccharides used, except for GOS, were reagent grade. GOS used was commercially available Oligomate 55N (Yakult Pharmaceutical Industry Co., Ltd.) from which monosaccharide and lactose fractions (fractions digestible and absorbable by the upper gastrointestinal tract) had been removed using an activated carbon column. Specifically, a saccharide solution diluted with purified water was added to a column packed with activated carbon (manufactured by Wako Pure Chemical Industries, Ltd.) swollen in purified water, and the column was washed with a 2% ethanol solution, followed by the elution of an indigestible fraction with a 50% ethanol solution. The eluate was dried under reduced pressure, and the obtained GOS saccharide solution was used.
A. hadrus YIT 10092^T (DSM 3119^T), which is a type strain of A. hadrus (a typical human intestinal butyrate-producing bacterium), and two isolates were used.
Each of these bacterial strains was anaerobically cultured at 37° C. for 24 hours in a PYA medium containing 33 mM sodium acetate supplemented with 0.5% D-glucose (PYGA medium). The culture solution was inoculated at 1% to a PYA medium containing 0.5 (w/v) % of each indigestible saccharide (test medium), followed by anaerobic culture at 37° C. for 24 hours. After the completion of the culture, the organic acid concentration in the culture solution was analyzed by ion-exclusion HPLC. The analysis conditions were the same as those described above in Example 2. After the quantification of the organic acid concentration, the amount of butyrate produced from each indigestible saccharide and the ratio of butyrate to total short-chain fatty acids were calculated according to the following expressions. (Amount of butyrate produced)=(Amount of butyrate in the test medium after culture)−(Amount of butyrate in a PYA medium without each indigestible saccharide after culture) (Ratio of butyrate)=(Amount of butyrate in the test medium after culture)/((Amount of acetate+Amount of propionate+Amount of butyrate) in the test medium after culture)×100 (Expression 3)

[5] = test system: mouse C57BL/6J; test: Single oral dose test of YIT 12355 to mouse given indigestible saccharide; format: in vivo
Method: Mice were acclimatized and raised with F2 feed for 1 week and then divided into 4 groups such that the average body weight was almost equal among these groups. A control diet (Table 12) was administered thereto for 1 week. Then, the control diet was administered to the control group (−/− group) and the AH/− group for 2 weeks while purified feed containing maltitol (MAL-containing diet) was administered to the −/MAL group and the AH/MAL group for 2 weeks. A live cell suspension of YIT 12355 was administered at a single dose using a probe after the administration of the control diet for 1 week. At the final day of the test, each mouse was dissected, and the cecal contents were recovered. The cecal contents were subjected to the cell count measurement of YIT 12355. • Test material: Maltitol (5% mixed feed administration) • Administered bacterial strain: YIT 12355 • Animal species: Mouse C57BL/6J (4 weeks old; CLEA Japan, Inc.) • Group configuration: 7 mice×4 groups The bacterial solution (viable count: 3.1×10^9 cfu/mL, total cell count: 1.9×10^10 cells/mL) prepared in the preceding paragraph 2) was orally administered at a single dose of 0.2 mL (viable count: 6.2×10^8 cfu/mouse, total cell count: 3.8×10^9 cells/mouse) to each mouse using a probe. To the control group and the −/MAL group, 0.2 mL of physiological saline was administered instead of the bacterial solution. […] Then, the cecal contents were recovered. The cecal contents were diluted 10-fold with PBS and subjected to DNA extraction. DNA was extracted by the bead-phenol method described in the paragraph 4)a) of Example 5 from the 10-fold diluted solution of the intestinal tract contents. The cell count of YIT 12355 was measured by quantitative PCR using the obtained DNA as a template and the bacterial species-specific primers described in the paragraph 4)a) of Example 5. After fixation of a portion of the 10-fold diluted solution of the intestinal tract contents in a 4% solution of paraformaldehyde in PBS, the total cell count was measured by the DAPI counting method. The cell count of YIT 12355 was divided by the total cell count to calculate an occupancy (%). (Occupancy of YIT 12355) (%)=(Cell count of YIT 12355/Total cell count)×100 (Expression 5)

[6] = summary in words of Table 13, single dose

## A. hadrus (Eubacterium hadrum) YIT 12355 (NITE BP-01832)
[1]; after anaerobic culture at 37° C. for 24 hours in PYGA liquid medium
  Turbidity (OD660): 3.55
[1]; anaerobic culture at 37° C. for 24 hours of 1% inoculum in PYSA (L-sorbose)
  Turbidity (OD660): 2.39
[1]; anaerobic culture at 37° C. for 24 hours of 1% inoculum in PYXA (D-xylitol)
  Turbidity (OD660): 1.47
[2]
  Acid phosphatase: +
  Alkaline phosphatase: +
  Esterase (C4): +
  Naphthol-AS-B1-phosphohydrolase: +
  α-Glucosidase: +^w
  β-Galactosidase: +
  β-Galactosidase-6-phosphate: −
[3]
  Aesculin: +
  D-Cellobiose: +^w
  D-Mannitol: +
  D-Raffinose: −
  D-Xylose: +
  Glycerol: +^w
  L-Arabinose: +
  L-Rhamnose: +
  L-Sorbitol: +
  Mallose: +
  Salicin: +
[4]; PYA medium with 0.5 (w/v) % of each indigestible saccharide, versus type strain, FIGS. 3 and 4
  ability to utilize indigestible saccharides: more than the type strain YIT 10092^T
[4]; from indigestible saccharides, versus type strain, FIG. 3
  Amount of butyrate produced: larger
[4]; versus type strain YIT 10092^T, FIG. 4
  ratio of butyrate to total short-chain fatty acids: higher than that of the type strain YIT 10092^T
[5]; cecum, DAPI counting method, single oral dose
  Total cell count: 10.9 ± 0.4 log10 (cells/g contents)
[5]; cecum, quantitative PCR, single oral dose
  Cell count, A. hadrus YIT 12355: 8.0 ± 0.3 log10 (cells/g contents)
[5]; cecum, ratio to total cell count, single oral dose
  Occupancy: 0.3%
[5]; [6]
  cell count of YIT 12355: largely changes neither
  occupancy of YIT 12355: largely changes neither
